Patent US20070276011A1, “Plasminogen Activator Inhibitor-1 Inhibitor” (priority 2003, published 2007)
pIC50: −log10 of the molar value.

Biological target: recombinant human PAI-1 (Homo sapiens, UniProt P05121)
Test: PAI-1 inhibitory activity, Test Method A (tPA fluorogenic substrate, Tris buffer pH8.0, 37 C)
Type: biochemical
Settings: for Inhibitory Ratio at 25 μM (%): Test Method A

Sequence of recombinant human PAI-1 (P05121 24-402): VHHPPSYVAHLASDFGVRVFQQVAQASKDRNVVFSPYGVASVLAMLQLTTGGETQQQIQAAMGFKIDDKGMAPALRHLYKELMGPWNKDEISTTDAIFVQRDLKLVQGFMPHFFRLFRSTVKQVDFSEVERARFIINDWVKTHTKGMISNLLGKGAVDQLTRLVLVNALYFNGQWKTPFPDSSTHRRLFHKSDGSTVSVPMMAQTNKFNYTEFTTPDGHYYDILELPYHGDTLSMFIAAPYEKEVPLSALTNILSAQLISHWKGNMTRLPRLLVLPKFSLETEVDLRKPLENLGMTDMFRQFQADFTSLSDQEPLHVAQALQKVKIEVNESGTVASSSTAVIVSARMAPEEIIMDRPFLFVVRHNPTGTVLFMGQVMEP

Inhibitory Ratio at 25 μM (%) (25 μM test compound) | Inhibitory Ratio at 25 μM (%) (test compound 25 μM) | SMILES | also measured
95 |  | O=C(O)c1cc(C=C2SC(=O)N(Cc3ccc(Cl)c(Cl)c3)C2=O)ccc1O [compound 358, 5-(3-Carboxy-4-hydroxybenzylidene)-3-(3,4-dichlorobenzyl)thiazolidine-2,4-dione] | 
>99 |  | O=C1C(=Cc2cc(O)c(O)c(O)c2)SC(=S)N1Cc1ccc(Cl)c(Cl)c1 [compound 303] | pIC50 (50% inhibitory concentration of PAI-1 activity, according to the aforementioned method): 6.41
32 |  | CCOC1=NN(c2ccc([N+](=O)[O-])cc2)C(=O)C1=Cc1cc(C(C)(C)C)ccc1O [compound 548] | 
44 |  | COc1cc(C=C2SC(=O)N(Cc3ccc(Cl)c(Cl)c3)C2=O)cc(OC)c1OC [compound 348] | 
 | 62 | COc1cc(C=C2C(=O)N(c3cccc(C(=O)O)c3)N=C2C)cc(Br)c1OCC(=O)NCc1ccccc1 [compound 174] | 
69 |  | COC(=O)c1ccc(NC(=O)c2cc(C=C3SC(=O)N(Cc4ccc(Cl)c(Cl)c4)C3=O)ccc2O)cc1O [compound 437] | 
 | >99 | O=C1SC(=Cc2cccc(O)c2O)C(=O)N1Cc1cccc(Cl)c1 [compound 30, 5-(2,3-Dihydroxybenzylidene)-3-(3-chlorobenzyl)thiazolidine-2,4-dione] | 
>99 |  | O=C(Nc1cc(C=C2SC(=O)N(Cc3ccc(Cl)c(Cl)c3)C2=O)ccc1O)c1ccc(O)c(O)c1 [compound 380] | 
 | 74 | COc1ccc(OC)c(N2C(=O)C(=Cc3ccc(O)c(O)c3)SC2=S)c1 [compound 75, 5-(3,4-Dihydroxybenzylidene)-3-(2,5-dimethoxyphenyl)rhodanine] | 
73 |  | COc1ccc(NC(=O)c2cc(C=C3SC(=O)N(Cc4cc(C(F)(F)F)cc(C(F)(F)F)c4)C3=O)ccc2O)cc1OC [compound 383, 5-[4-Hydroxy-3-(3,4-dimethoxyphenylcarbamoyl)benzylidene]-3-[3,5-bis(trifluoromethyl)benzyl]thiazolidine-2,4-dione] | 
65 |  | O=C1SC(=Cc2cc(O)c3c(c2)OCO3)C(=O)N1Cc1ccc(Cl)c(Cl)c1 [compound 324] | 
 | >99 | CC(C)(C)c1cc(CN2C(=O)SC(=Cc3cccc(O)c3O)C2=O)cc(C(C)(C)C)c1O [compound 13, 5-(2,3-Dihydroxybenzylidene)-3-[3,5-di(tert-butyl)-4-hydroxybenzyl]-thiazolidine-2,4-dione] | 
>99 |  | COCC1=NN(c2cc(Cl)cc(Cl)c2)C(=O)C1=Cc1cc(Br)ccc1O [compound 521, 4-(2-Hydroxy-5-bromobenzylidene)-1-(3,5-dichlorophenyl)-3-methoxymethyl-2-pyrazolin-5-one] | 
96 |  | O=C(O)c1ccc(N2N=C(c3cc(Br)ccc3O)C(=Cc3ccc(Cl)c(Cl)c3)C2=O)cc1 [Compound No. 564, 4-(3,4-Dichlorobenzylidene)-1-(4-carboxyphenyl)-3-(2-hydroxy-5-bromophenyl)-2-pyrazolin-5-one] | 
93 |  | CC(C)C1=NN(c2cc(Cl)cc(Cl)c2)C(=O)C1=Cc1ccc(O)cc1O [compound 505] | 
 | >99 | COc1cc(C=C2SC(=O)N(Cc3ccc(Cl)c(Cl)c3)C2=O)cc(O)c1O [compound 38] | 
 | >99 | Cc1ccc(N2N=C(C(C)C)C(=Cc3ccc(O)c(O)c3)C2=O)cc1Cl [compound 119, 4-(3,4-Dihydroxybenzylidene)-1-(3-chloro-4-methylphenyl)-3-isopropyl-2-pyrazolin-5-one] | 
43 |  | CCOC(=O)Oc1ccc(C=C2SC(=O)N(Cc3ccc(Cl)cc3Cl)C2=O)cc1OC(=O)OCC [compound 337] | 
 | >99 | CCOc1cc(C=C2C(=O)N(c3cccc(C(=O)O)c3)N=C2C)ccc1OC(=O)c1cccs1 [compound 103] | 
89 |  | COc1cc(C=C2SC(=O)N(Cc3ccc(Cl)c(Cl)c3)C2=O)cc(C(=O)O)c1O [compound 345, 5-(3-Methoxy-4-hydroxy-5-carboxybenzlidene)-3-(3,4-dichlorobenzyl)thiazolidine-2,4-dione] | 
 | 33 | COc1cc(C=C2C(=O)N(c3cccc(Cl)c3)N=C2C)cc(O)c1O [compound 124] | 
71 |  | COC(=O)c1cc(C=C2SC(=O)N(Cc3ccc(Cl)c(Cl)c3)C2=O)cc(OC)c1O [compound 343, 5-[3-methoxy-4-hydroxy-5-(methoxycarbonyl)benzylidene]-3-(3,4-dichlorobenzyl)thiazolidine-2,4-dione] | 
 | >99 | CC(C)C1=NN(c2cc(Cl)cc(Cl)c2)C(=O)C1=Cc1ccc(O)c(O)c1O [compound 142] | 
 | 35 | O=C(O)c1cccc(N2N=C(c3ccccc3)C(=Cc3ccccc3)C2=O)c1 [compound 175] | 
 | 32 | COC(=O)c1cccc(N2N=C(C(C)(C)C)C(=Cc3ccc(Cl)c(Cl)c3)C2=O)c1 [compound 197] | 
 | 80 | Cc1ccc(N2N=C(C(C)C)C(=Cc3cccc(O)c3)C2=O)cc1Cl [compound 121] | 

Inhibitory Ratio at 25 μM (%) (25 μM test compound) | Inhibitory Ratio at 25 μM (%) (test compound 25 μM) | SMILES | also measured
55 |  | COC(=O)c1ccc(NC(=O)c2cc(C=C3SC(=O)N(Cc4ccc(Cl)c(Cl)c4)C3=O)ccc2O)cc1OC [compound 405, 5-{4-hydroxy-3-[3-methoxy-4-(methoxycarbonyl)phenylcarbamoyl]-benzylidene}-3-(3,4-dichlorobenzyl)thiazolidine-2,4-dione] | 
75 |  | COc1ccc(C=Cc2ccccc2)cc1C=C1C(=O)N(c2ccc(C(=O)O)cc2)N=C1C(C)C [compound 535] | 
 | >99 | CC(C)C1=NN(c2cc(C(F)(F)F)cc(C(F)(F)F)c2)C(=O)C1=Cc1ccc(O)c(O)c1 [compound 118, 4-(3,4-Dihydroxybenzylidene)-1-[3,5-bis(trifluoromethyl)phenyl]-3-isopropyl-2-pyrazolin-5-one] | 
>99 |  | CCOC1=NN(c2ccc([N+](=O)[O-])cc2)C(=O)C1=Cc1cc(C=Cc2ccc(Oc3ccccc3)cc2)ccc1O [Compound No. 565, 4 [2-Hydroxy-5-(4-phenoxystyryl)benzylidene]-1-(4-nitrophenyl)-3-ethoxy-2-pyrazolin-5-one] | 
98 |  | O=C(Nc1ccc(O)c(O)c1)c1cc(C=C2SC(=O)N(Cc3cc(F)cc(F)c3)C2=O)ccc1O [compound 386] | 
 | 49 | COC(=O)c1cccc(N2N=C(C(C)C)C(=Cc3ccc(Cl)c(Cl)c3)C2=O)c1 [compound 210] | 
 | 65 | Nc1ccc(C=C2SC(=O)N(Cc3ccc(Cl)c(Cl)c3)C2=O)cc1O [compound 88] | 
 | 71 | COc1cc(CN2C(=O)SC(=Cc3cccc(O)c3O)C2=O)cc(OC)c1 [compound 3, 5-(2,3-Dihydroxybenzylidene)-3-(3,5-dimethoxybenzyl)thiazolidine-2,4-dione] | 
 | 90 | O=C1C(=Cc2ccc(-c3cc(Cl)cc(Cl)c3)o2)C(C(F)(F)F)=NN1c1cccc([N+](=O)[O-])c1 [compound 182] | 
 | 55 | CC(C)(C)C1=NN(c2ccccc2)C(=O)C1=Cc1ccc(O)c(O)c1 [compound 133] | 
 | 67 | O=C1SC(=Cc2ccc(O)c(O)c2)C(=O)N1Cc1cccc([N+](=O)[O-])c1 [compound 48, 5-(3,4-Dihydroxybenzylidene)-3-(3-nitrobenzyl)thiazolidine-2,4-dione] | 
 | 90 | COC(=O)c1cccc(N2N=C(c3ccccc3)C(=Cc3ccc(-c4cc(Cl)cc(Cl)c4)o3)C2=O)c1 [compound 180] | 
>99 |  | O=C1C(=Cc2ccc(O)cc2)C(c2ccc(O)cc2)=NN1c1cc(Cl)cc(Cl)c1 [compound 511] | 
93 |  | O=C(Nc1ccc(O)c(O)c1)c1cc(C=C2SC(=O)N(Cc3ccc(-c4ccccc4)cc3)C2=O)ccc1O [compound 373] | 
 | >99 | O=C1SC(=Cc2cc(O)ccc2[N+](=O)[O-])C(=O)N1Cc1ccc(Cl)c(Cl)c1 [compound 39] | 
 | 93 | O=C1SC(=Cc2cccc(O)c2O)C(=O)N1Cc1cccc([N+](=O)[O-])c1 [compound 49] | 
39 |  | O=C(CCc1ccccc1)Nc1ccc(CN2C(=O)SC(=Cc3ccc(O)c(O)c3)C2=O)cc1 [compound 315] | 
>99 |  | O=C1SC(=Cc2ccc(O)c(O)c2)C(=O)N1Cc1ccc(Nc2ccccc2)cc1 [compound 302, 5-(3,4-Dihydroxybenzylidene)-3-[4-(phenylamino)benzyl]thiazolidine-2,4-dione] | 
83 |  | COC(=O)c1cc(C=C2SC(=O)N(Cc3ccc(Cl)cc3Cl)C2=O)cc(OC)c1O [compound 429] | 
 | >99 | O=C(CN1C(=O)SC(=Cc2ccc(O)c(O)c2)C1=O)c1ccc(Cl)cc1Cl [compound 92, 5-(3,4-Dihydroxybenzylidene)-3-[(2,4-dichlorobenzoyl)-methyl]thiazolidine-2,4-dione] | 
 | >99 | CC(C)C1=NN(c2cc(Cl)cc(Cl)c2)C(=O)C1=Cc1ccc(O)c(O)c1 [compound 107] | 
>99 |  | Cc1ccc(O)c(NC(=O)c2cc(C=C3SC(=O)N(Cc4ccc(Cl)c(Cl)c4)C3=O)ccc2O)c1 [compound 457] | 
>99 |  | CC1=NN(c2ccc([N+](=O)[O-])cc2)C(=O)C1=Cc1cc(C=Cc2ccccc2)ccc1O [compound 533] | 
>99 |  | O=C1C(=Cc2cc(C=Cc3ccccc3)ccc2O)C(c2ccc(O)cc2)=NN1c1ccc(Cl)cc1 [compound 530] | 
75 |  | CCOC1=NN(c2ccc([N+](=O)[O-])cc2)C(=O)C1=Cc1c(Br)ccc(O)c1O [compound 551] | 

SMILES | Inhibitory Ratio at 25 μM (%) (25 μM test compound) | Inhibitory Ratio at 25 μM (%) (test compound 25 μM) | also measured
O=C(Nc1cc(C(F)(F)F)ccc1[N+](=O)[O-])c1cc(C=C2SC(=O)N(Cc3ccc(Cl)c(Cl)c3)C2=O)ccc1O [compound 466] | >99 |  | 
O=C1SC(=Cc2cc([O-])c([O-])c(O)c2)C(=O)N1Cc1ccc(Cl)c(Cl)c1.[Na+].[Na+] [compound 338] | 85 |  | 
O=C(O)c1cccc(N2N=C(C(F)(F)F)C(=Cc3ccc(-c4cc(Cl)cc(Cl)c4)o3)C2=O)c1 [compound 218] |  | 95 | 
